This passage reports Ki results from ChEMBL document CHEMBL4732063, “Ninhydrins inhibit carbonic anhydrases directly binding to the metal ion” (Eur J Med Chem, 2021).

The target of one experiment is Carbonic anhydrase 4 (Homo sapiens, UniProt P22748). As to the kind of experiment: Inhibition of recombinant human carbonic anhydrase 4 preincubated with enzyme for 15 mins by phenol red dye based stopped flow CO2 hydration assay.
The target of the next experiment is Carbonic anhydrase 9 (Homo sapiens, UniProt Q16790). Kind of experiment: Inhibition of recombinant human carbonic anhydrase 9 preincubated with enzyme for 15 mins by phenol red dye based stopped flow CO2 hydration assay.
The next experiment addresses Carbonic anhydrase 2 (Homo sapiens, UniProt P00918). Kind of experiment: Inhibition of recombinant human carbonic anhydrase 2 preincubated with enzyme for 15 mins by phenol red dye based stopped flow CO2 hydration assay.
A further experiment has as its target Carbonic anhydrase 7 (Homo sapiens, UniProt P43166). Kind of experiment: Inhibition of recombinant human carbonic anhydrase 7 preincubated with enzyme for 15 mins by phenol red dye based stopped flow CO2 hydration assay.
A further experiment addresses Carbonic anhydrase 1 (Homo sapiens, UniProt P00915). As to the kind of experiment: Inhibition of recombinant human carbonic anhydrase 1 preincubated with enzyme for 15 mins by phenol red dye based stopped flow CO2 hydration assay.

Carbonic anhydrase 4, sequence (P22748 whole entry): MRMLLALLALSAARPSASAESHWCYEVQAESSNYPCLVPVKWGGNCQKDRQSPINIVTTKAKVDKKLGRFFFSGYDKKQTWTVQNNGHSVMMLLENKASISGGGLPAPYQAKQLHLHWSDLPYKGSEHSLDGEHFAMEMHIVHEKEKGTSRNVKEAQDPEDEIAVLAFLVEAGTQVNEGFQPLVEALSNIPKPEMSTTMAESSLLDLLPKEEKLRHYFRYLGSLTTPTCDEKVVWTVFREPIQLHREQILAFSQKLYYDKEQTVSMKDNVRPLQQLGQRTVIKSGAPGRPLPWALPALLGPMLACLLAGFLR
Carbonic anhydrase 1, sequence (P00915 whole entry): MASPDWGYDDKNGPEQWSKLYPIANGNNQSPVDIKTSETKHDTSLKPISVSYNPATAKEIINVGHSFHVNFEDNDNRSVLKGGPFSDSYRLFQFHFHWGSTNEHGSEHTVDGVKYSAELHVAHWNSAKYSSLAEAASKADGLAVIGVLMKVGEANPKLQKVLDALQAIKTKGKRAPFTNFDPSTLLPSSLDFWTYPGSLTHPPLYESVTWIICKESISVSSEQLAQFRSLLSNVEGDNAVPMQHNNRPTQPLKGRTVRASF
Carbonic anhydrase 7, sequence (P43166 whole entry): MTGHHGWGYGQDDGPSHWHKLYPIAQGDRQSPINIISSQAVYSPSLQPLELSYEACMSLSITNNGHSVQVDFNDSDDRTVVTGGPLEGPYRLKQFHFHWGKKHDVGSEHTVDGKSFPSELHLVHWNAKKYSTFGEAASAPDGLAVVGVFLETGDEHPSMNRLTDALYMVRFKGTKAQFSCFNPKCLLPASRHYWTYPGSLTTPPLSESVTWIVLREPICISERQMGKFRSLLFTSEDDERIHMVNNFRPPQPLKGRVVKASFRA

Consider `O=C1c2cccc(Br)c2C(=O)C1(O)O`, for which the Ki – broadly, the equilibrium dissociation constant of an inhibitor or competing ligand from its target – at Carbonic anhydrase 4 was more than 100 µM; at Carbonic anhydrase 9, 61.2 µM.

For `COc1cccc2c1C(=O)C(O)(O)C2=O`, the Ki was more than 100 µM at Carbonic anhydrase 4 and 34.1 µM at Carbonic anhydrase 9.

Take `COc1ccc2c(c1)C(=O)C(O)(O)C2=O`: the results for the Ki at Carbonic anhydrase 4 and on Carbonic anhydrase 9 were 74.3 µM and 13.4 µM, respectively.

As to `O=C1c2cccc(F)c2C(=O)C1(O)O`, the Ki on Carbonic anhydrase 4 was more than 100 µM; at Carbonic anhydrase 9, 44.3 µM.

Take `O=C1c2ccc(O)cc2C(=O)C1(O)O`: the Ki was more than 100 µM at Carbonic anhydrase 4 and 27.8 µM at Carbonic anhydrase 9.

With `O=C1c2ccc(Br)cc2C(=O)C1(O)O`, the Ki is 71.3 µM on Carbonic anhydrase 4 and 2.85 µM at Carbonic anhydrase 9.

With `Cc1ccc2c(c1)C(=O)C(O)(O)C2=O`, the Ki at Carbonic anhydrase 4 came to 84.6 µM; on Carbonic anhydrase 9, 16.8 µM.

Regarding `COc1ccc(OC)c2c1C(=O)C(O)(O)C2=O`, the Ki is more than 100 µM at Carbonic anhydrase 4 and 68.2 µM at Carbonic anhydrase 9.

On to `O=C1c2ccc(F)cc2C(=O)C1(O)O`, for which the values for the Ki at Carbonic anhydrase 4 and at Carbonic anhydrase 9 were more than 100 µM and 38.7 µM, respectively.

Consider `O=C1c2cc(Br)cc(Br)c2C(=O)C1(O)O`, for which the Ki at Carbonic anhydrase 4 was more than 100 µM; on Carbonic anhydrase 9, 2.81 µM.

On to `COc1cc2c(cc1OC)C(=O)C(O)(O)C2=O`, for which the Ki was more than 100 µM on Carbonic anhydrase 4 and 30.4 µM at Carbonic anhydrase 9.

As to `CC(C)Oc1cccc2c1C(=O)C(O)(O)C2=O`, the values for the Ki on Carbonic anhydrase 4 and on Carbonic anhydrase 9 were more than 100 µM and 1.34 µM, respectively.

With `COc1ccc(CNC(=O)CCl)c2c1C(=O)C(O)(O)C2=O`, the results for the Ki at Carbonic anhydrase 4 and on Carbonic anhydrase 9 were more than 100 µM and 8.41 µM, respectively.

As to `O=C1c2ccccc2C(=O)C1(O)O`, the Ki on Carbonic anhydrase 2 was 22.7 µM; on Carbonic anhydrase 4 it was more than 100 µM; at Carbonic anhydrase 9, 2.37 µM; at Carbonic anhydrase 7, 0.074 µM; at Carbonic anhydrase 1, 5.38 µM.

Regarding `Cc1cccc2c1C(=O)C(O)(O)C2=O`, the values for the Ki at Carbonic anhydrase 4 and at Carbonic anhydrase 9 were more than 100 µM and 51.4 µM, respectively.

Take `O=C1c2ccc([N+](=O)[O-])cc2C(=O)C1(O)O`: the Ki on Carbonic anhydrase 4 is more than 100 µM; at Carbonic anhydrase 9, 29.6 µM.

As to `O=C1c2cccc([N+](=O)[O-])c2C(=O)C1(O)O`, the Ki at Carbonic anhydrase 4 is more than 100 µM; on Carbonic anhydrase 9, 31 µM.

For the compound `O=C1c2cccc(O)c2C(=O)C1(O)O`, the Ki is more than 100 µM on Carbonic anhydrase 4 and 17.1 µM on Carbonic anhydrase 9.

On to `O=C1c2c(Br)c(Br)c(Br)c(Br)c2C(=O)C1(O)O`, for which the Ki on Carbonic anhydrase 4 amounted to 39.7 µM; on Carbonic anhydrase 9, 46.7 µM.

In the case of `COc1ccc(C(C)C)c2c1C(=O)C(O)(O)C2=O`, the Ki was more than 100 µM at Carbonic anhydrase 4 and 54.3 µM on Carbonic anhydrase 9.
